Experiments:
Type in all cases: in vivo
[1] = test system: German cockroaches (Blattella germanica); test: Test Example 2: control test against German cockroaches, spray in chamber; conditions: adult German cockroaches; 1.5 mL sprayed; concentration [%]: nicofluprole 0.01, imiprothrin 0.01, cypermethrin 0.01, alone or mixed; 120 minutes after spraying
Experimental: (§1) Next, the usefulness of the inventive composition for controlling pests will be indicated by Test Examples. In general, the control effect to be expected when treated with a mixture obtained by mixing given two or three types of active ingredient compounds is determined by the Colby's calculation equation represented by the following [Equation 1] and [Equation 2].
(§2) [formula] • P: moribund and mortal rates (%) when treated with an active ingredient compound X in the concentration of m [ppm] • Q: moribund and mortal rates (%) when treated with an active ingredient compound Y in the concentration of n [ppm] • EA: moribund and mortal rates (%) when treated with an active ingredient compound X in the concentration of m [ppm] and an active ingredient compound Y in the concentration of n [ppm] (hereinafter referred to as expected value A) […]
(§3) Regarding the synergistic effect of three types of the active ingredient compounds, in case where the moribund and mortal rates (%) when actually treated with a mixture obtained by mixing three types of the active ingredient compounds exceed the expected value A calculated by using the moribund and mortal rates (%) when actually treated with a mixture obtained by mixing two types of the active ingredient compounds among three types thereof, and the moribund and mortal rates (%) calculated when actually treated the remaining one type of the active ingredient compound, or the expected value B (%) calculated from the moribund and mortal rates (%) when actually treated with each of three types of the active ingredient compounds alone, it was determined that the synergistic effect exists. […]

[2] = test system: German cockroaches (Blattella germanica); test: Test Example 4: control test against German cockroaches, spray in chamber; conditions: adult German cockroaches; 1.5 mL sprayed; concentration [%]: nicofluprole 0.01, imiprothrin 0.01, deltamethrin 0.0002, alone or mixed; 45 minutes after spraying
Experimental: as §1, §2, §3

[3] = test system: German cockroaches (Blattella germanica); test: Test Example 6: control test against German cockroaches, spray in chamber; conditions: adult German cockroaches; 1.5 mL sprayed; concentration [%]: isocycloseram 0.05, imiprothrin 0.01, lambda-cyhalothrin 0.0025, alone or mixed; 60 minutes after spraying
Experimental: as §1, §2, §3

[4] = test system: German cockroaches (Blattella germanica); test: Test Example 11: control test against German cockroaches, spray in chamber; conditions: adult German cockroaches; 1.5 mL sprayed; concentration [%]: isocycloseram 0.01, imiprothrin 0.01, permethrin 0.05, alone or mixed; 120 minutes after spraying
Experimental: as §1, §2, §3

C#CCN1CC(=O)N(COC(=O)[C@@H]2C(C=C(C)C)C2(C)C)C1=O (mixture of isomers) [Imiprothrin, imiprothrin]
Moribund and mortal rates [%] after 120 minutes [1]: 15% | Moribund and mortal rates [%] after 45 minutes [2]: 65% | Moribund and mortal rates [%] after 60 minutes [3]: 25% | Moribund and mortal rates [%] after 120 minutes [4]: 15%
